US20180251765A1, “HIGH-THROUGHPUT SPLIT APTAMER SCREENING ASSAY” (BELLBROOK LABS, priority 2015, published 2018)
Read-outs that look alike come from different tables or passages of the source.

What was measured:
[1] = target: histone H4 acetylated at lysine 16 (H4K16Ac) (Homo sapiens, UniProt P62805); conditions: cited from earlier work
[2] = system: SAH riboswitch from D. aromatica; conditions: cited from earlier work
PRMT1 = PRMT1 (Homo sapiens, UniProt Q99873); conditions: read-out: Km (SAM); plot of velocity vs. SAM, FIG. 5F
Sequence of PRMT1 (Q99873 whole entry, species assumed): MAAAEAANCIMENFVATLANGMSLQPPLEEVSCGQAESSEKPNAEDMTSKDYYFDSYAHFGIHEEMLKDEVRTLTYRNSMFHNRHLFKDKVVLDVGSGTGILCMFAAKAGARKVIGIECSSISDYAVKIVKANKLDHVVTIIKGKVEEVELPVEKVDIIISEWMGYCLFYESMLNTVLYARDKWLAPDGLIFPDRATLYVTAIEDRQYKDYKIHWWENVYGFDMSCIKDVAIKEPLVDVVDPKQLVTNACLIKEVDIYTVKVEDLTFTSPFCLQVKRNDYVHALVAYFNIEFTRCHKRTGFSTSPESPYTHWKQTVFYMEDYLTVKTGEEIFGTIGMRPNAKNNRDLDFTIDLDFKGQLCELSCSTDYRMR

[3] = system: split SAH aptamer P152/P218, Eu construct; test: split aptamer SAH TR-FRET assay, Eu construct; assay type: binding, D. aromatica
Dar-1 riboswitch = test: SAH dependent switch with FP readout, intact riboswitch with fluor-labeled oligo; assay type: binding, D. aromatica; conditions: for EC50: FP dose response
Excerpt: (§1) The native riboswitch signaling mechanism was first leveraged by transducing the conformational switch that occurs upon SAH binding into a fluorescent signal. The goal was to identify an oligonucleotide that would bind to the riboswitch specifically when SAH was present due to the localized conformational disruption it causes (FIG. 3A). Using two well characterized riboswitches, Ref-1 (SEQ ID NO:1) and Dar-1 (SEQ ID NO:4) (Wang et al., 2008, Mol. Cell. 29(6):691-702), an unbiased, empirical approach was taken by testing a panel of 8-10 bp oligos that covered the entire sequence of each riboswitch. The oligos were labeled with fluors at the 5′ end so that binding could be detected by the increase in fluorescence polarization.
A robust, dose dependent FP shift under optimized conditions was observed, which was quite reproducible. However, the affinity of the riboswitch for SAH was much lower than the low nanomolar level expected, and it decreased further over time (see FIG. 3B and inset table for representative data with Dar-1). […] Moreover, the selectivity for SAH vs. SAM was much poorer than expected, less than 50-fold for both Dar-1 and Ref-1 rather than the 1000-fold-plus selectivity reported for the native riboswitch (Wang et al., 2008, Mol. Cell. 29(6):691-702). Despite significant effort to understand and eliminate the unstable nature of the SAH-riboswitch interaction, including confirming that both the riboswitch and the SAH were not degrading over time, a stable, high affinity SAH dependent signal was unable to be obtained. Thus, a split aptamer approach was next explored.

[4] = target: SAH riboswitch from R. soanacearum; conditions: isothermal titration calorimetry; cited from earlier work
[5] = system: split Dar-1 riboswitch (P152/P218); test: split aptamer SAH FP assay; assay type: binding, D. aromatica
Protocol: Based on the predicted folding of the Dar-1 sequence and imputed SAH binding interactions (Wang et al., 2008, Mol Cell. 29(6):691-702), two versions of a split Dar-1 riboswitch were tested, comprised of either a 59 or 52 base 5′ element (P159 of SEQ ID NO:6 or P152 of SEQ ID NO:7) and the remaining 18 base 3′ element (P218 of SEQ ID NO:8). […] For simplicity, EC50 values were used as an approximation of ligand dissociation constants, or Kd. […] This is the first example of a split aptamer sensor with FP readout.
Selectivity vs. SAM is a critical parameter, as measurement of HMT enzyme activity requires detection of SAH in an excess of SAM. […] Thus, the selectivity for SAH is at least 200-fold and likely higher; however, measurements are limited by contamination of SAM with SAH. The combination of sensitivity and selectivity is reflected in a standard curve mimicking an HMT enzyme reaction, in which 200 nM SAM was decreased as SAH was added proportionately (FIG. 4D). To quantitatively assess the robustness of the split aptamer FP assay, the standard curve was done with sixteen replicates to allow determination of Z′ values, a commonly used HTS assay statistic that measures that incorporates both dynamic range and data variability (Zhang et al., 1999, J Biomol. Screen. 4(2):67-73). […] The Z′ measured in this Example was 0.56, indicative of a high quality assay.

Ref-1 riboswitch = test: SAH dependent switch with FP readout, intact riboswitch with fluor-labeled oligo; assay type: binding, R. ferrireducens; conditions: intact Ref-1
Excerpt: as §1
A robust, dose dependent FP shift under optimized conditions was observed, which was quite reproducible. However, the affinity of the riboswitch for SAH was much lower than the low nanomolar level expected, and it decreased further over time (see FIG. 3B and inset table for representative data with Dar-1). […] Moreover, the selectivity for SAH vs. SAM was much poorer than expected, less than 50-fold for both Dar-1 and Ref-1 rather than the 1000-fold-plus selectivity reported for the native riboswitch (Wang et al., 2008, Mol. Cell. 29(6):691-702). […]

[6] = system: split SAH aptamer P152/P218, Tb construct; test: split aptamer SAH TR-FRET assay, Tb construct; assay type: binding, D. aromatica
Protocol: The split aptamer SAH detection assay was next formatted for TR-FRET readout. Luminescent lanthanides were attached to P152 of the SAH aptamer via streptavidin-biotin, and organic acceptor fluors were attached to P218 during synthesis. Both Tb and Eu lanthanide chelates (Life Technologies) were tested, as were four different organic fluors with excitation spectra overlapping the lanthanide emission (Alexa 633, Alexa 647, Cy5, and Dylight 650.)
Importantly, the signal was stable for at least 15 h.

[7] = target: dimethyl Arg in Histone H3 (H3R8Me2) (Homo sapiens, UniProt P68431); conditions: cited from earlier work
[8] = system: RNA aptamer for theophylline; conditions: on the basis of a single methyl group; cited from earlier work

For “H4K16Ac aptamer: 48 base DNA aptamer for histone H4 acetylated at lysine 16 (AGACGTAAGTTAATTGGACTTGGTCGTGTGCGGCACAGCGATTGAAAT; DNA, backbone and methylation of C not given here)”, the “selectivity versus Histone H4 acetylation at K8 or unmodified Histone H4 sequence” value [1] is given as “more than 2,000 fold” and the Kd ([1]; read-out: Kd for target PTM) is given as 21 nM.
In the case of `C[S+](CC[C@H](N)C(=O)[O-])C[C@H]1O[C@@H](n2cnc3c(N)ncnc32)[C@H](O)[C@@H]1O` (stereo partly drawn) [SAM, S-adenosylmethionine], the “selectivity for SAH versus SAM (affinity for SAM fold lower)” value ([2]; native riboswitch) is listed as “at least 1000 fold” and the Km (PRMT1) is listed as 0.014 µM.
`Nc1ncnc2c1ncn2[C@@H]1O[C@H](CSCC[C@H](N)C(=O)O)[C@@H](O)[C@H]1O` [SAH, S-adenosylhomocysteine] showed an EC50 [3] of 16 nM, an EC50 (Dar-1 riboswitch; after 3 h, read-out: EC50 for SAH after 3 h) of 1900 nM and an EC50 (Dar-1 riboswitch; initial reading, read-out: initial EC50 for SAH) of 472 nM. For the same molecule, the “selectivity for SAH vs. SAM” value (Dar-1 riboswitch; intact Dar-1) was “less than 50 fold”, the Kd ([2]; equilibrium binding analysis) was 20 nM and the Kd [4] was 30 nM. For the same molecule, the EC50 ([5]; from FP dose response curves FIG. 4B, used as approximation of Kd) was 20 to 25 nM, the “selectivity for SAH vs. SAM” value ([5]; limited by contamination of SAM with SAH) was “at least 200 fold” and the “selectivity for SAH vs. SAM” value (Ref-1 riboswitch) was “less than 50 fold”. For the same molecule, the EC50 [6] was 23 nM.
For “H3R8Me2 aptamer: 50 base RNA aptamer developed for dimethyl Arg in Histone H3 (GAUGGGUCAGCAUGUAGCCAGGCAGGGCCGUGUGAGCUUGUGCUGAUGUG; RNA, backbone and methylation of C not given here)”, the Kd ([7]; read-out: affinity for the target modified peptide) is given as 12 nM, the “selectivity for a similar histone PTM (H3K9Me2)” value ([7]; vs H3K9Me2) is given as 8.1 fold and the “selectivity for the unmodified peptide” value ([7]; vs unmodified peptide) is given as 3.5 fold.
In the case of `Cn1c(=O)c2[nH]cnc2n(C)c1=O` [theophylline], the selectivity against caffeine [8] is listed as “more than 10^4 fold”.
